Reference: ChEMBL document CHEMBL1201862, “PubChem BioAssay data set” (2004)
The source made the active and inactive calls.

Columns and labels:
Galanin receptor type 3 = molecular target: T1, Galanin receptor type 3 (Homo sapiens, UniProt O60755); assay: Fluorescence-based cell-based primary high throughput dose response assay to identify antagonists of the Galanin Receptor 3 (GalR3).; format: functional
T1 sequence (O60755 whole entry): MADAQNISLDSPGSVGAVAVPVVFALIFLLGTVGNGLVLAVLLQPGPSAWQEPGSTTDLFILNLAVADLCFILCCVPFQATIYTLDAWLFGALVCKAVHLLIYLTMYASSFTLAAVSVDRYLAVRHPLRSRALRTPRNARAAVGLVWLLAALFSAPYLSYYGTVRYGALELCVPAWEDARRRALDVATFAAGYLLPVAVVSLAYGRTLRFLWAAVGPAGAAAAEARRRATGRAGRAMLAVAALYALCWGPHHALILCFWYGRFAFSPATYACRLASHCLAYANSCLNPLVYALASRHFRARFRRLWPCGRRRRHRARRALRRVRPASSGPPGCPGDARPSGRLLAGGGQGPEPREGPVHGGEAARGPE

cells = format: functional, cell-based; conditions: HEK-CNG
HEK293 [1] = assay: inhibition of NOD1-driven NF-kB reporter – cell-based, luminescence, uHTS, primary screen (AID 1578); format: functional; conditions: Homo sapiens
HEK293 [2] = assay: cells; format: functional, cell-based; conditions: Homo sapiens
HEK293 [3] = assay: cells; format: functional, cell-based; conditions: Homo sapiens; remark: listed apart in the source
HEK293 [4] = assay: NOD2 signaling inhibitors in MDP-stimulated cells, cell-based, uHTS, luminescence (AID 2001); format: functional; conditions: Homo sapiens
[5] = reduction of Shn3 3'UTR-driven luciferase in osteoblasts – cell-based, Clone20 osteoblasts, firefly luciferase, cherry-picked, dose response (AID 624132); format: functional;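 further: firefly luciferase luminescence from reporter carrying the Shn3 3'UTR in osteoblasts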
[6] = loss of viability in HepG2 cells – cell-based, CellTiter-Glo, cherry-picked, cytotoxicity control for Shn3 inhibitor project, dose response (AID 624134); format: functional
[7] = non-specific 3'UTR reporter inhibition in Clone20-Shn3RL – cell-based, Renilla luciferase, cherry-picked, counter-screen for Shn3 inhibitor project, dose response (AID 624133); format: functional
Large T antigen = Large T antigen (Simian virus 40, UniProt P03070); format: functional, Betapolyomavirus macacae;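 further: Confirmatory-stage PubChem screen for compounds that inhibit SV40 T antigen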
[8] = molecular target: 26S proteasome non-ATPase regulatory subunit 14 (Homo sapiens, UniProt O00487); assay: inhibition of proteasome subunit RPN11 – biochemical, fluorescence polarization, uHTS hits, confirmation (AID 602368); format: functional
[9] = molecular target: 72 kDa type IV collagenase (Homo sapiens, UniProt P08253); assay: Dose Response validation of uHTS RPN11 inhibitor hits using a MMP-2 Fluorescence assay.; format: functional
Prothrombin = Prothrombin (Bos taurus, UniProt P00735); assay: thrombin protease inhibitors – biochemical, fluorescence polarization, uHTS hits, dose response (AID 602369); format: functional
[10] = NIH-3T3 fibroblast cytotoxicity, dose response, cytotoxicity control, cell-based, fluorescence, Alamar Blue, secondary assay (AID 2327); format: functional;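 further: NIH-3T3 mouse fibroblasts cultured with fluconazole at 8 µg/mL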
[11] = fluconazole-exposed Candida albicans growth modulators – fluorescence, retest, confirmation (AID 2467); format: functional, cell-based
[12] = molecular target: T2, Serine/threonine-protein phosphatase (Candida dubliniensis (strain CD36 / CBS 7987 / NCPF 3949 / NRRLY-17841) (Yeast), UniProt B9W6M3); assay: blockers of CaCl2-induced CDRE-lacZ signaling – S. cerevisiae, luminescence, secondary, dose response (AID 2388); format: functional, cell-based;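 further: yeast reporter cells carrying a calcineurin-responsive lacZ construct stimulated with calcium chloride; luminescent beta-galactosidase reporter signal in whole cells rather than isolated phosphatase activity; potency for inhibition where a drop in reporter signal means calcineurin blockade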
T2 sequence (B9W6M3 whole entry): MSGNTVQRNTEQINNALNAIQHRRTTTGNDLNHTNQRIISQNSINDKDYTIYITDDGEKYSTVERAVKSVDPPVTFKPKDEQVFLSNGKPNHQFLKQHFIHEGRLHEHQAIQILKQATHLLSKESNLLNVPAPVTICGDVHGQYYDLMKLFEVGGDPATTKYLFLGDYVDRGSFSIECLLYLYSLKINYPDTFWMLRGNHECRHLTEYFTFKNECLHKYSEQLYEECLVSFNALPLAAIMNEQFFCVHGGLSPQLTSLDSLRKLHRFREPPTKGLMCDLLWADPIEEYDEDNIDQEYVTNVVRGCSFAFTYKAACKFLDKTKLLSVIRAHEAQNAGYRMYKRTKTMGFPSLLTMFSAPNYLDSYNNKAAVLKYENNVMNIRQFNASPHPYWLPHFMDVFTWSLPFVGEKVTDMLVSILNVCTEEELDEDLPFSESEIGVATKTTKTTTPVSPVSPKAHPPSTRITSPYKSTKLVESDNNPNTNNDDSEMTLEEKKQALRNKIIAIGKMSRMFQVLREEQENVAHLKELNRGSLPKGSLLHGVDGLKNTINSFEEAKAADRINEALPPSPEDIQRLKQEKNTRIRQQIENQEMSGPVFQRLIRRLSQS

INS1 = assay: INS-1E survival protection against cytokine death – cell-based, luminescence, retest, dose response (AID 449756); format: functional; conditions: Rattus norvegicus;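 further: cell death triggered by IL-1 beta plus TNF-alpha plus IFN-gamma mixture; protective hits raise ATP signal compared with cytokine alone wells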
[13] = molecular target: ATP-dependent molecular chaperone HSP82 (Candida albicans (strain WO-1) (Yeast), UniProt C4YTQ8); assay: steroid-induced GRE reporter decrease in yeast – S. cerevisiae, luminescence, Hsp90 inhibitor project, dose response (AID 2400); format: functional, cell-based;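 further: beta-galactosidase luminescence from glucocorticoid response element reporter as proxy for Hsp90 function; inhibitor potency where signal loss means Hsp90 inhibition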
Sequence of ATP-dependent molecular chaperone HSP82 (C4YTQ8 whole entry): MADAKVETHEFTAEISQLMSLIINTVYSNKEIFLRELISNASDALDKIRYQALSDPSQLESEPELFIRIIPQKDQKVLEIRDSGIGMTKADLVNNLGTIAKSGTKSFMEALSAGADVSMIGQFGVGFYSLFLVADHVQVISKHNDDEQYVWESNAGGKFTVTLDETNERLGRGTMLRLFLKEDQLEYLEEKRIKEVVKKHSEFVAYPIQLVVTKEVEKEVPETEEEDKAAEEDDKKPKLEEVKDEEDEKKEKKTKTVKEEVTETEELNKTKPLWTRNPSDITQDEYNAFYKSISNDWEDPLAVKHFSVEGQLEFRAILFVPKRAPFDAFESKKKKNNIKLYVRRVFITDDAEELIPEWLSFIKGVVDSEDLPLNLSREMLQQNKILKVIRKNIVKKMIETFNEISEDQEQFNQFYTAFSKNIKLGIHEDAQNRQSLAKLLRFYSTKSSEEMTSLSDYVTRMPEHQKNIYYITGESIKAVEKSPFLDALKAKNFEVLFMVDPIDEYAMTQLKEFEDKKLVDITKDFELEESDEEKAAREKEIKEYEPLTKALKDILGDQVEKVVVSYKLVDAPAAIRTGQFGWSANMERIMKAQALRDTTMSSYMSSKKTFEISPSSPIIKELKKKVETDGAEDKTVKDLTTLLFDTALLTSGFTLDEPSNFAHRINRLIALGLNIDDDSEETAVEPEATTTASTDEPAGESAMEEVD

Sequence of Large T antigen (P03070 whole entry): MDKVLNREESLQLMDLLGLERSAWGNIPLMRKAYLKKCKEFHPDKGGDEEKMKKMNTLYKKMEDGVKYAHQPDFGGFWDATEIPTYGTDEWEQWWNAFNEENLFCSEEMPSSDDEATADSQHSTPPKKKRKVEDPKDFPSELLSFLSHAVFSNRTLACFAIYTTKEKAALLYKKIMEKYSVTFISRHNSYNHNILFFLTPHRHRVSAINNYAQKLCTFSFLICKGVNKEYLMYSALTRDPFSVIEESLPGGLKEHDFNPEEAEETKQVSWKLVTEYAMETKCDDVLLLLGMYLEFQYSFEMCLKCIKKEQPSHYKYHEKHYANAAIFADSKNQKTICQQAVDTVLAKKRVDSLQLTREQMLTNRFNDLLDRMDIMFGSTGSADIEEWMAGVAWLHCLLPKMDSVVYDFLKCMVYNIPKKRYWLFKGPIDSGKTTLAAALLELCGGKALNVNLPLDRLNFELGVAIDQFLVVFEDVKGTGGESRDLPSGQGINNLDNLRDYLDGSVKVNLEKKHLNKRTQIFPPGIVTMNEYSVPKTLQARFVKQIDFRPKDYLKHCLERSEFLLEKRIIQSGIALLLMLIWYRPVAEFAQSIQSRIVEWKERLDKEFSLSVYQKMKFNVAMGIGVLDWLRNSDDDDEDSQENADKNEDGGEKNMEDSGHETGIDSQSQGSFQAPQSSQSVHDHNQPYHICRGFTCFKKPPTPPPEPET
Sequence of 26S proteasome non-ATPase regulatory subunit 14 (O00487 whole entry): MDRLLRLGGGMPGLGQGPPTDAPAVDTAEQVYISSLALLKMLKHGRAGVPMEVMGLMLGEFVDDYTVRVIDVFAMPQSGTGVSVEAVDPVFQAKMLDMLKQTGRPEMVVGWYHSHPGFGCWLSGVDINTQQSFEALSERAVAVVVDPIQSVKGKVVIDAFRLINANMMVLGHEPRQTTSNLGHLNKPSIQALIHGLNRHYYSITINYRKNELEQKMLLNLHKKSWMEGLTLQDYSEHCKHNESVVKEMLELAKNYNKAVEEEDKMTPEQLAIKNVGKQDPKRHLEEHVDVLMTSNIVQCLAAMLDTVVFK
Sequence of 72 kDa type IV collagenase (P08253 whole entry): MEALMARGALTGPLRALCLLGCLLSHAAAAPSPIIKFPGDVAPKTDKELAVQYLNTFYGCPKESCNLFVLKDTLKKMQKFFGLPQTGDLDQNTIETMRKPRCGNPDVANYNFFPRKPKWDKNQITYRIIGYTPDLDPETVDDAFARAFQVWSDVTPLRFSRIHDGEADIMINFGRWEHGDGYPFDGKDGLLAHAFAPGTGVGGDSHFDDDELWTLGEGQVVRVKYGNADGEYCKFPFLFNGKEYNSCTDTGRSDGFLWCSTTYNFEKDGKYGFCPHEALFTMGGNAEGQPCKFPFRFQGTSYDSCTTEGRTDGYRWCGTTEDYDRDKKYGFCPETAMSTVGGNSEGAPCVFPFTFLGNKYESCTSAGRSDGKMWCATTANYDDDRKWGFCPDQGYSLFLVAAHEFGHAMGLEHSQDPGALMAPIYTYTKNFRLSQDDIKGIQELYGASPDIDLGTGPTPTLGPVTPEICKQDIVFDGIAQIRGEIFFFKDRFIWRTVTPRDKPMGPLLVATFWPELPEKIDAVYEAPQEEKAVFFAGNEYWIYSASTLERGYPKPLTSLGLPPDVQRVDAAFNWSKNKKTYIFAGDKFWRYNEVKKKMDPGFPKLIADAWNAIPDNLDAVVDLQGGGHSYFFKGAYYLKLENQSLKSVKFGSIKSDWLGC

Compound: COCCn1c(C)cc(C(=O)COc2nc3ccccc3nc2C)c1C
- IC50 (Galanin receptor type 3): 3.67 µM (active)
- EC50 (cells): > 29.9 µM (inactive)

Compound: O=C(c1cc(COc2c(F)cccc2F)on1)N1CCC(c2ccncc2)CC1
- EC50 (HEK293 [1]): 2.64 µM (active)
- IC50 (HEK293 [2]): 9.14 µM (active)
- IC50 (HEK293 [3]): > 20 µM (inactive)
- IC50 (HEK293 [4]): 17.1 µM (inactive)
- AC50 [5]: 1.6 µM (active)
- AC50 [6]: 6.75 µM (active)
- AC50 [7]: 2.31 µM (active)

Compound: O=C1NC(=O)N(c2ccc(Cl)cc2)C(=O)/C1=C\c1ccc(Sc2nc3ccccc3[nH]2)o1
- IC50 (Large T antigen): 18.8 µM (active)
- IC50 [8]: 42.2 µM (active)
- IC50 [9]: > 100 µM (inactive)
- IC50 (Prothrombin): 44.9 µM (active)

Compound: O=C(Nc1nc(-c2ccc(Cl)cc2Cl)cs1)c1ccc(OCC2CCCO2)cc1 (stereo not given)
- IC50 (Galanin receptor type 3): 1.07 µM (active)
- EC50 (cells): > 29.9 µM (inactive)

Compound: COc1ccc(C2C(C#N)=C(N)Oc3c2ccc2cccnc32)cc1OC (stereo not given)
- EC50 [10]: 19.1 µM (inconclusive)
- EC50 [11]: 5.01 µM (active)
- EC50 [12]: > 180 µM (inactive)
- AC50 (INS1): 6.75 µM (active)
- EC50 [13]: > 150 µM (inactive)
